# According to patent US12030835B2, “Substituted amide compounds useful as farnesoid X receptor modulators” (BRISTOL-MYERS SQUIBB COMPANY, priority 2019, dated 2024):
# Target: T1, human FXR (Homo sapiens, UniProt Q96RI1)
# T1 construct: expressed in transfected cells
# T1 sequence (Q96RI1 262-486 limits assumed): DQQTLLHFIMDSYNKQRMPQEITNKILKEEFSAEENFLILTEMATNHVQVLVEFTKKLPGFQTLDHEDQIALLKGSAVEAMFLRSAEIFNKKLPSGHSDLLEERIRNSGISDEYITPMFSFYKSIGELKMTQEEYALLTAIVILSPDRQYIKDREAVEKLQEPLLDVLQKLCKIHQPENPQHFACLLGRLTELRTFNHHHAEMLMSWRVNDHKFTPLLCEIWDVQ
# Assay: transient human FXR/Gal4-luciferase reporter assay
# Type: cell-based
# Details: Gal4-hFXR (ligand binding domain) fusion transiently transfected in HEK293 Gal4-luciferase reporter cells; overnight incubation; response as percentage of 8 μM GW-4064 control
# Experimental: A Gal4-hFXR fusion construct reporter system was used as the primary assay to characterize compound activity. A construct including 5 copies of the Gal4 promoter response element upstream of a firefly luciferase reporter cDNA was stably expressed in HEK293 cells. This reporter cell line was maintained in Dulbecco's Modified Eagle's medium (DMEM; Gibco) supplemented with 1% penicillin-streptomycin (P/S) solution, 500 μg/ml Zeocin and 10% charcoal/dextran-treated fetal bovine serum (cs-FBS) at 37° C. in a humidified 5% CO2 atmosphere. Another plasmid was constructed in which the human cytomegalovirus promoter in the pcDNA3.1 vector directs the expression of the cDNA encoding a fusion protein comprised of the DNA binding domain from the Gal4 transcription factor fused to the ligand binding domain from human FXR.
# The day prior to transfection, the reporter cells in culture are detached from the plate with trypsin and plated into a T75 flask at a sufficient density to achieve approximately 90% confluence the next morning. The transfection reagents are prepared by separately diluting 25 μg of the pcDNA3.1-Gal4-FXR plasmid into 1.87 mL of Opti-MEM (Thermo-Fisher), and 40 μL of Lipofectamine 2000 (Thermo-Fisher) into 1.87 mL of Opti-MEM, and then adding the diluted DNA solution into the diluted Lipofectamine 2000 solution and incubating at room temperature for 15-20 minutes. The mixture is further diluted with 10 ml of a solution comprised of DMEM, 10% cs-FBS, and 1% P/S immediately prior to transferring to the cells. The maintenance culture media is aspirated from the cells and the final transfection mixture is added before the cells are incubated overnight at 37° C. in a humidified 5% CO2 atmosphere. This protocol can be scaled up, and the transiently transfected cells can be cryopreserved in an assay-ready format.
# For compound testing, 100 nL of the compounds (serial dilutions in DMSO) are dispensed with an Echo acoustic dispenser (Labcyte) into the wells of a Corning/Costar clear bottom 384-well white plate. The transfected cells are harvested, counted, and diluted such that 10-25,000 cells in 25 μL are plated into each well of the 384-well compound assay plate. The compound-treated cells are incubated overnight at 37° C. in a humidified 5% CO2 atmosphere. The next morning 25 μL of Steady-Glo (Promega) are added to each well of the plate, the mixture is incubated for 15 min. with shaking, and luminescence is measured on an Envision (Perkin Elmer) plate reader.
row,Structure (SMILES),EC50 [nM]
1,"COC(=O)/C=C/c1cccc(N(CC23CCC(c4nc(C)no4)(CC2)CC3)C(=O)C2CC2)c1 [Example 21, methyl (E)-3-(3-(N-((4-(3-methyl-1,2,4-oxadiazol-5-yl)bicyclo[2.2.2]octan-1-yl)methyl)cyclopropanecarboxamido)phenyl) acrylate]",2440
2,"COC(=O)/C=C/c1cccc(N(CC23CCC(c4nc(C)no4)(CC2)CC3)C(=O)C(C)C)c1 [Example 22, methyl (E)-3-(3-(N-((4-(3-methyl-1,2,4-oxadiazol-5-yl)bicyclo[2.2.2]octan-1-yl)methyl)isobutyramido)phenyl)acrylate]",849
3,"COC(=O)/C=C/c1cccc(N(CC23CCC(c4nc(C)no4)(CC2)CC3)C(=O)C2CCOCC2)c1 [Example 23, Methyl (E)-3-(3-(N-((4-(3-methyl-1,2,4-oxadiazol-5-yl)bicyclo[2.2.2]octan-1-yl)methyl)tetrahydro-2H-pyran-4-carboxamido)phenyl)acrylate]",920
4,"Cc1noc(C23CCC(CN(C(=O)C4CCCCC4)c4cccc(/C=C/C(=O)N(C)C)c4)(CC2)CC3)n1 [Example 27, (E)-N-(3-(3-(dimethylamino)-3-oxoprop-1-en-1-yl)phenyl)-N-((4-(3-methyl-1,2,4-oxadiazol-5-yl)bicyclo[2.2.2]octan-1-yl)methyl)cyclohexanecarboxamide]",4460
5,"COC(=O)/C=C/c1cccc(N(CC23CCC(c4ccc(C5CC5)cc4)(CC2)CC3)C(=O)C2CC2)c1 [Example 28, Methyl (E)-3-(3-(N-((4-(4-cyclopropylphenyl)bicyclo[2.2.2]octan-1-yl)methyl)cyclopropanecarboxamido)phenyl)acrylate]",947
6,"COC(=O)C1=Cc2cccc(N(CC34CCC(c5ccc(C6CC6)cc5)(CC3)CC4)C(=O)C3CC3)c2CC1 [Example 31, methyl 5-(N-((4-(4-cyclopropylphenyl)bicyclo[2.2.2]octan-1-yl)methyl)cyclopropanecarboxamido)-3,4-dihydronaphthalene-2-carboxylate]",796
7,"COC(=O)/C=C(\C)c1cccc(N(CC23CCC(c4ccc(C5CC5)cc4)(CC2)CC3)C(=O)C2CC2)c1 [Example 36, Methyl (E)-3-(3-(N-((4-(4-cyclopropylphenyl)bicyclo[2.2.2]octan-1-yl)methyl)cyclopropanecarboxamido)phenyl)but-2-enoate]",1780
8,"COC(=O)/C=C/c1cccc(N(CC23CCC(c4ccc(C(C)C)cc4)(CC2)CC3)C(=O)C2CC2)c1 [Example 39, Methyl (E)-3-(3-(N-((4-(4-isopropylphenyl)bicyclo[2.2.2]octan-1-yl)methyl)cyclopropanecarboxamido)phenyl)acrylate]",1430
9,"COC(=O)C1=Cc2cccc(N(CC34CCC(c5nc(C)no5)(CC3)CC4)C(=O)C3CCCCC3)c2CC1 [Example 40, Methyl 5-(N-((4-(3-methyl-1,2,4-oxadiazol-5-yl)bicyclo[2.2.2]octan-1-yl)methyl)cyclohexanecarboxamido)-3,4-dihydronaphthalene-2-carboxylate]",1070
10,"COC(=O)C1=Cc2cccc(N(CC34CCC(c5ccc6c(cnn6C)c5)(CC3)OC4)C(=O)C3CCCCC3)c2CC1 [Example 45, Methyl 5-(N-((1-(1-methyl-1H-indazol-5-yl)-2-oxabicyclo[2.2.2]octan-4-yl)methyl)cyclohexanecarboxamido)-3,4-dihydronaphthalene-2-carboxylate]",1150

# These reach a lower EC50. Values come first.
row,EC50 [nM],Structure (SMILES)
1,150,"COC(=O)/C=C/c1cccc(N(CC23CCC(c4nc(C)no4)(CC2)CC3)C(=O)C2CCCCCC2)c1 [Example 24, methyl (E)-3-(3-(N-((4-(3-methyl-1,2,4-oxadiazol-5-yl)bicyclo[2.2.2]octan-1-yl)methyl)cycloheptanecarboxamido)phenyl) acrylate]"
2,123,"COC(=O)/C=C/c1cccc(N(CC23CCC(c4nc(C)no4)(CC2)CC3)C(=O)C23CC(F)(C2)C3)c1 [Example 25, methyl (E)-3-(3-(3-fluoro-N-((4-(3-methyl-1,2,4-oxadiazol-5-yl)bicyclo[2.2.2]octan-1-yl)methyl)bicyclo[1.1.1]pentane-1-carboxamido)phenyl)acrylate]"
3,302,"COC(=O)/C=C/c1cccc(N(CC23CCC(c4nc(C)no4)(CC2)CC3)C(=O)C2CC(F)(F)C2)c1 [Example 26, methyl (E)-3-(3-(3,3-difluoro-N-((4-(3-methyl-1,2,4-oxadiazol-5-yl)bicyclo[2.2.2]octan-1-yl)methyl)cyclobutane-1-carboxamido)phenyl)acrylate]"
4,161,"COC(=O)/C=C/c1cccc(N(CC23CCC(c4ccc(C5CC5)cc4)(CC2)CC3)C(=O)C2CCCCC2)c1 [Example 29, Methyl (E)-3-(3-(N-((4-(4-cyclopropylphenyl)bicyclo[2.2.2]octan-1-yl)methyl)cyclohexanecarboxamido)phenyl)acrylate]"
5,195,"COC(=O)C1=Cc2cccc(N(CC34CCC(c5ccc(C6CC6)cc5)(CC3)CC4)C(=O)C3CCCCC3)c2CC1 [Example 30, Methyl 5-(N-((4-(4-cyclopropylphenyl)bicyclo[2.2.2]octan-1-yl)methyl)cyclohexanecarboxamido)-3,4-dihydronaphthalene-2-carboxylate]"
6,466,"COC(=O)C1=Cc2cccc(N(CC34CCC(c5ccc(C6CC6)cc5)(CC3)CC4)C(=O)C(C)C)c2CC1 [Example 32, methyl 5-(N-((4-(4-cyclopropylphenyl)bicyclo[2.2.2]octan-1-yl)methyl)isobutyramido)-3,4-dihydronaphthalene-2-carboxylate]"
7,414,"COC(=O)/C=C/c1cccc(N(CC23CCC(c4nc5ccccc5s4)(CC2)CC3)C(=O)C2CC2)c1 [Example 33, Methyl (E)-3-(3-(N-((4-(benzo[d]thiazol-2-yl)bicyclo[2.2.2]octan-1-yl)methyl)cyclopropanecarboxamido)phenyl)acrylate]"
8,222,"COC(=O)/C=C/c1cccc(N(CC23CCC(c4nc5ccccc5s4)(CC2)CC3)C(=O)C2CCCCC2)c1 [Example 34, Methyl (E)-3-(3-(N-((4-(benzo[d]thiazol-2-yl)bicyclo[2.2.2]octan-1-yl)methyl)cyclohexanecarboxamido)phenyl)acrylate]"
9,446,"COc1ccc(C23CCC(CN(C(=O)C4CCCCC4)c4cccc(/C=C/c5nc(C)no5)c4)(CC2)CC3)cc1 [Example 35, (E)-N-((4-(4-methoxyphenyl)bicyclo[2.2.2]octan-1-yl)methyl)-N-(3-(2-(3-methyl-1,2,4-oxadiazol-5-yl)vinyl)phenyl)cyclohexanecarboxamide]"
10,498,"COC(=O)/C=C(\C)c1cccc(N(CC23CCC(c4ccc(C5CC5)cc4)(CC2)CC3)C(=O)C2CCCCC2)c1 [Example 37, Methyl (E)-3-(3-(N-((4-(4-cyclopropylphenyl)bicyclo[2.2.2]octan-1-yl)methyl)cyclohexanecarboxamido)phenyl)but-2-enoate]"
11,196,"COC(=O)/C=C/c1cccc(N(CC23CCC(c4ccc(C(C)C)cc4)(CC2)CC3)C(=O)C2CCCCC2)c1 [Example 38, Methyl (E)-3-(3-(N-((4-(4-isopropylphenyl)bicyclo[2.2.2]octan-1-yl)methyl)cyclohexanecarboxamido)phenyl)acrylate]"
12,118,"COC(=O)/C=C/c1cccc(N(CC23CCC(c4nc(N5CCOCC5)no4)(CC2)CC3)C(=O)C2CCCCC2)c1 [Example 42, Methyl (E)-3-(3-(N-((4-(3-morpholino-1,2,4-oxadiazol-5-yl)bicyclo[2.2.2]octan-1-yl)methyl)cyclohexanecarboxamido)phenyl)acrylate]"
13,107,"COC(=O)/C=C/c1cccc(N(CC23CCC(c4nc(C5CCOCC5)no4)(CC2)CC3)C(=O)C2CCCCC2)c1 [Example 43, Methyl (E)-3-(3-(N-((4-(3-(tetrahydro-2H-pyran-4-yl)-1,2,4-oxadiazol-5-yl)bicyclo[2.2.2]octan-1-yl)methyl)cyclohexanecarboxamido)phenyl)acrylate]"
14,87,"COC(=O)/C=C/c1cccc(N(CC23CCC(c4noc(C)n4)(CC2)CC3)C(=O)C2CCCCC2)c1 [Example 44, Methyl (E)-3-(3-(N-((4-(5-methyl-1,2,4-oxadiazol-3-yl)bicyclo[2.2.2]octan-1-yl)methyl)cyclohexanecarboxamido)phenyl)acrylate]"
